# Results from US9057727B2, “Screening methods using G-protein coupled receptors and related compositions” (The General Hospital Corporation, priority 2007, dated 2015).
# Ends that are not written are not given here. Peptide text beside a SMILES is read from it.
# Molecular target: T1, human PTHR, G protein-uncoupled conformation (R^0) (Homo sapiens, UniProt Q03431)
# T1 construct: expressed in transfected cells; host or cells: COS-7, transient (Fugene-6)
# T1 sequence (Q03431 27-593): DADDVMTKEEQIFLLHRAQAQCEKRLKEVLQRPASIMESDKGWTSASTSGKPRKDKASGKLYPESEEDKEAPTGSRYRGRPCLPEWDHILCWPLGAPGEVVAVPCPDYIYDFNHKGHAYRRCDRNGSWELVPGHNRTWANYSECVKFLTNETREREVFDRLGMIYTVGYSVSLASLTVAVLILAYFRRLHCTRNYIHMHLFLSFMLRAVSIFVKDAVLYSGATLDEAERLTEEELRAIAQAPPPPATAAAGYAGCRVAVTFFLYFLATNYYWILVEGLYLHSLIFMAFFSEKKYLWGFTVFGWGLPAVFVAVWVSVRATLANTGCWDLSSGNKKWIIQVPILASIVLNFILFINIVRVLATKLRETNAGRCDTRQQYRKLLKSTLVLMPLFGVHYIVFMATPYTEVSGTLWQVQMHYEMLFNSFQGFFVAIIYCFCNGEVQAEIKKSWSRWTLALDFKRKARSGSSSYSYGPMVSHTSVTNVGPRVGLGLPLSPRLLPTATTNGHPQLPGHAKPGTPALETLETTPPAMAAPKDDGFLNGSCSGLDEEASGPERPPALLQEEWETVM
# Test: Competition binding to R0 conformation of hPTHR (COS-7 membranes, GTPγS, 125I-PTH(1-34) tracer)
# Conditions: Table 4; human PTH1 receptor; read-out: R0 binding IC50
# Protocol: Membranes were prepared from COS-7 cells transfected with the hPTHR alone. GTPγS ([…]) was added to the binding reactions so as to functionally uncouple receptor-heterotrimeric G protein complexes, thus enriching for the R^0 (and R) conformations, relative to RG.
# Reactions contained a total membrane protein concentration of 20 to 100 μg/mL, and a total radioactivity concentration of approximately 150,000 cpm/ml. Unlabeled peptide ligands and/or GTPγS (Sigma-Aldrich Inc. St. Louis, Mo.) were added to the reactions as indicated.
# Membranes, tracer radioligand, and various concentrations of unlabeled ligands and/or GTPγS were incubated in the wells for 90 minutes, following which, the reaction plates were processed by rapid vacuum filtration to separate bound from free radioligand, as described above. […] For both radioligands, the non-specific binding was determined in reactions containing a saturating concentration of the unlabeled analog of the radioligand. The specifically bound radioactivity was calculated as a percent of the radioactivity specifically bound in the absence of a competing ligand or GTPγS.
# To assess the capacities of various unlabeled peptide ligands to bind to the G protein-uncoupled and G protein-coupled PTHR conformations (R^0 and RG, respectively), membranes were prepared from transiently transfected COS-7 cells and the following assay conditions.
row,Molecule,IC50
1,"CC[C@H](C)[C@H](NC(=O)[C@H](CCC(=O)O)NC(=O)[C@H](C)NC(=O)[C@@H](NC(=O)[C@H](C)N)C(C)C)C(=O)N[C@@H](CCC(N)=O)C(=O)N[C@@H](CC(C)C)C(=O)N[C@@H](CCSC)C(=O)N[C@@H](Cc1c[nH]cn1)C(=O)N[C@@H](CCC(N)=O)C(=O)N[C@@H](CCCNC(=N)N)C(=O)N[C@@H](C)C(=O)N[C@@H](CCCCN)C(=O)N[C@@H](Cc1c[nH]c2ccccc12)C(=O)N[C@@H](CC(C)C)C(=O)N[C@@H](CC(N)=O)C(=O)N[C@@H](CO)C(=O)N[C@@H](CCSC)C(=O)N[C@@H](CCCNC(=N)N)C(=O)N[C@@H](CCCNC(=N)N)C(=O)N[C@H](C(=O)N[C@@H](CCC(=O)O)C(=O)N[C@@H](Cc1ccccc1)C(=O)N[C@@H](CC(C)C)C(=O)N[C@@H](CCCNC(=N)N)C(=O)N[C@@H](CCCCN)C(=O)N[C@@H](CCCCN)C(=O)N[C@@H](CC(C)C)C(=O)N[C@@H](CCC(N)=O)C(=O)N[C@@H](CC(=O)O)C(=O)N[C@H](C(=O)N[C@@H](Cc1c[nH]cn1)C(=O)N[C@@H](CC(N)=O)C(=O)N[C@@H](Cc1ccccc1)C(=O)O)C(C)C)C(C)C [F23,Mc-PTH(1-34)OH, F^23,Mc-PTH(1-34)OH] (H-AVAEIQLMHQRAKWLNSMRRVEFLRKKLQDVHNF-OH; N-terminus assumed)",1.2 ± 0.4 nM

# Same assay, conditions: human PTH receptor on COS-7 cell membranes
row,Molecule,R0/RG ratio
1,"CC[C@H](C)[C@H](NC(=O)[C@H](CCC(=O)O)NC(=O)[C@H](C)NC(=O)[C@@H](NC(=O)[C@H](C)N)C(C)C)C(=O)N[C@@H](CCC(N)=O)C(=O)N[C@@H](CC(C)C)C(=O)N[C@@H](CCSC)C(=O)N[C@@H](Cc1c[nH]cn1)C(=O)N[C@@H](CCC(N)=O)C(=O)N[C@@H](CCCNC(=N)N)C(=O)N[C@@H](C)C(=O)N[C@@H](CCCCN)C(=O)N[C@@H](Cc1c[nH]c2ccccc12)C(=O)N[C@@H](CC(C)C)C(=O)N[C@@H](CC(N)=O)C(=O)N[C@@H](CO)C(=O)N[C@@H](CCSC)C(=O)N[C@@H](CCCNC(=N)N)C(=O)N[C@@H](C)C(=O)N[C@H](C(=O)N[C@@H](CCC(=O)O)C(=O)N[C@@H](Cc1c[nH]c2ccccc12)C(=O)N[C@@H](CC(C)C)C(=O)N[C@@H](CCCNC(=N)N)C(=O)N[C@@H](CCCCN)C(=O)N[C@@H](CCCCN)C(=O)N[C@@H](CC(C)C)C(=O)N[C@@H](CCC(N)=O)C(=O)N[C@@H](CC(=O)O)C(=O)N[C@H](C(=O)N[C@@H](Cc1c[nH]cn1)C(=O)N[C@@H](CC(N)=O)C(=O)N[C@@H](Cc1ccccc1)C(=O)O)C(C)C)C(C)C [A20,Mc-PTH(1-34)OH, A^20,Mc-PTH(1-34)OH] (H-AVAEIQLMHQRAKWLNSMRAVEWLRKKLQDVHNF-OH; N-terminus assumed)",80
2,"CC[C@H](C)[C@H](NC(=O)[C@H](CCC(=O)O)NC(=O)[C@H](C)NC(=O)[C@@H](NC(=O)[C@H](C)N)C(C)C)C(=O)N[C@@H](CCC(N)=O)C(=O)N[C@@H](CC(C)C)C(=O)N[C@@H](CCSC)C(=O)N[C@@H](Cc1c[nH]cn1)C(=O)N[C@@H](CCC(N)=O)C(=O)N[C@@H](CCCNC(=N)N)C(=O)N[C@@H](C)C(=O)N[C@@H](CCCCN)C(=O)N[C@@H](Cc1c[nH]c2ccccc12)C(=O)N[C@@H](CC(C)C)C(=O)N[C@@H](CC(N)=O)C(=O)N[C@@H](CO)C(=O)N[C@@H](CCSC)C(=O)N[C@@H](CCCNC(=N)N)C(=O)N[C@@H](CCCNC(=N)N)C(=O)N[C@H](C(=O)N[C@@H](CCC(=O)O)C(=O)N[C@@H](Cc1ccccc1)C(=O)N[C@@H](CC(C)C)C(=O)N[C@@H](CCCNC(=N)N)C(=O)N[C@@H](CCCCN)C(=O)N[C@@H](CCCCN)C(=O)N[C@@H](CC(C)C)C(=O)N[C@@H](CCC(N)=O)C(=O)N[C@@H](CC(=O)O)C(=O)N[C@H](C(=O)N[C@@H](Cc1c[nH]cn1)C(=O)N[C@@H](CC(N)=O)C(=O)N[C@@H](Cc1ccccc1)C(=O)O)C(C)C)C(C)C [F23,Mc-PTH(1-34)OH, F^23,Mc-PTH(1-34)OH] (H-AVAEIQLMHQRAKWLNSMRRVEFLRKKLQDVHNF-OH; N-terminus assumed)",5

# Test system: LLCPK1-B64 cells or SaOS-2 cells
# Test: cAMP screen of substituted PTHrP(1-28) analogs (% parent)
# Assay type: cell-based
# Conditions: parent PTHrP(1-28)NH
# Protocol: Alanine substitution at position 18, 22, 25 and 26 increased activity in at least one cell type. These positions were further substituted to various types of amino acids, and cAMP activity was analyzed in LLCPK1-B64 cells (FIG. 27C) or SaOS-2 cells (FIG. 27D). Cells were treated with analogs at 3×10^−9M in the presence of IBMX for 30 minutes at room temperature. Responses for each analog were normalized to the response for the parent (native) PTHrP(1-28) peptide. Alanine substitutions were A^15 to A^17 (SEQ ID NO:152-154), A^18 (SEQ ID NO:34), A^19 to A^21 (SEQ ID NO:155-157), A^22 (SEQ ID NO:39), A^23 to A^25 (SEQ ID NO:158-160), A^26 (SEQ ID NO:46), and A^27 to A^28 (SEQ ID NO:161-162). Substitutions at position 18 were A^18 (SEQ ID NO: 34), G^18 (SEQ ID NO:163), S^18 (SEQ ID NO:35), M^18 (SEQ ID NO:36), L^18 (SEQ ID NO:164), F^18 (SEQ ID NO:37), N^18 (SEQ ID NO:165), E^18 (SEQ ID NO:38), and K^18 (SEQ ID NO:166). Substitutions at position 22 were A^22 (SEQ ID NO:39), G^22 (SEQ ID NO:167), and S^22 to K^22 (SEQ ID NO:40-45). Substitutions at position 26 were A^26 (SEQ ID NO:46), G^26 (SEQ ID NO:168), S^26 (SEQ ID NO:47), L^26 (SEQ ID NO:169), N^26 (SEQ ID NO:48), W^26 to E^26 (SEQ ID NO:170-171), and K^26 to R^26 (SEQ ID NO:49-50). Substitutions at position 25 were G^25 to S^25 (SEQ ID NO:172-173), L^25 (SEQ ID NO:51), N^25 (SEQ ID NO:174), W^25 (SEQ ID NO:52), E^25 (SEQ ID NO:175), and K^25 to R^25 (SEQ ID NO:53-54). […]
row,Molecule,screen cAMP (% parent)
1,"A18,22,F25,K26-PTHrP(1-28) (AVSEHQLLHDKGKSIQDARRRAFLFKLI-NH2) [A18, 22, F25, K26-PTHrP(1-28)NH]",337 % parent
2,"A18,22,I25,K26-PTHrP(1-28) (AVSEHQLLHDKGKSIQDARRRAFLIKLI-NH2) [A18, 22, I25, K26-PTHrP(1-28)NH]",342 % parent
3,"A18,22,W25,K26-PTHrP(1-28) (AVSEHQLLHDKGKSIQDARRRAFLWKLI-NH2) [A18, 22, W25, K26-PTHrP(1-28)NH]",329 % parent
4,A18-PTHrP(1-28) (AVSEHQLLHDKGKSIQDARRRFFLHHLI-NH2) [A18-PTHrP(1-28)NH],164 % parent
5,A22-PTHrP(1-28) (AVSEHQLLHDKGKSIQDLRRRAFLHHLI-NH2) [A22-PTHrP(1-28)NH],185 % parent
6,A26-PTHrP(1-28) (AVSEHQLLHDKGKSIQDLRRRFFLHALI-NH2) [A26-PTHrP(1-28)NH],142 % parent
7,"E18,A22,26-PTHrP(1-28) (AVSEHQLLHDKGKSIQDERRRAFLHALI-NH2) [E18, A22, 26-PTHrP(1-28)NH]",190 % parent
8,"E18,S22,K25,26-PTHrP(1-28) (AVSEHQLLHDKGKSIQDERRRSFLKKLI-NH2) [E18, S22, K25, 26-PTHrP(1-28)NH]",335 % parent
9,E18-PTHrP(1-28) (AVSEHQLLHDKGKSIQDERRRFFLHHLI-NH2) [E18-PTHrP(1-28)NH],140 % parent
10,E22-PTHrP(1-28) (AVSEHQLLHDKGKSIQDLRRREFLHHLI-NH2) [E22-PTHrP(1-28)NH],121 % parent
11,F18-PTHrP(1-28) (AVSEHQLLHDKGKSIQDFRRRFFLHHLI-NH2) [F18-PTHrP(1-28)NH],109 % parent
12,K22-PTHrP(1-28) (AVSEHQLLHDKGKSIQDLRRRKFLHHLI-NH2) [K22-PTHrP(1-28)NH],150 % parent
13,K25-PTHrP(1-28) (AVSEHQLLHDKGKSIQDLRRRFFLKHLI-NH2) [K25-PTHrP(1-28)NH],163 % parent
14,K26-PTHrP(1-28) (AVSEHQLLHDKGKSIQDLRRRFFLHKLI-NH2) [K26-PTHrP(1-28)NH],142 % parent
15,L22-PTHrP(1-28) (AVSEHQLLHDKGKSIQDLRRRLFLHHLI-NH2) [L22-PTHrP(1-28)NH],142 % parent
16,L25-PTHrP(1-28) (AVSEHQLLHDKGKSIQDLRRRFFLLHLI-NH2) [L25-PTHrP(1-28)NH],325 % parent
17,M18-PTHrP(1-28) (AVSEHQLLHDKGKSIQDMRRRFFLHHLI-NH2) [M18-PTHrP(1-28)NH],113 % parent
18,N22-PTHrP(1-28) (AVSEHQLLHDKGKSIQDLRRRNFLHHLI-NH2) [N22-PTHrP(1-28)NH],138 % parent
19,N26-PTHrP(1-28) (AVSEHQLLHDKGKSIQDLRRRFFLHNLI-NH2) [N26-PTHrP(1-28)NH],113 % parent
20,R25-PTHrP(1-28) (AVSEHQLLHDKGKSIQDLRRRFFLRHLI-NH2) [R25-PTHrP(1-28)NH],204 % parent
21,R26-PTHrP(1-28) (AVSEHQLLHDKGKSIQDLRRRFFLHRLI-NH2) [R26-PTHrP(1-28)NH],143 % parent
22,S18-PTHrP(1-28) (AVSEHQLLHDKGKSIQDSRRRFFLHHLI-NH2) [S18-PTHrP(1-28)NH],121 % parent
23,S22-PTHrP(1-28) (AVSEHQLLHDKGKSIQDLRRRSFLHHLI-NH2) [S22-PTHrP(1-28)NH],141 % parent
24,S26-PTHrP(1-28) (AVSEHQLLHDKGKSIQDLRRRFFLHSLI-NH2) [S26-PTHrP(1-28)NH],107 % parent
25,W22-PTHrP(1-28) (AVSEHQLLHDKGKSIQDLRRRWFLHHLI-NH2) [W22-PTHrP(1-28)NH],129 % parent
26,W25-PTHrP(1-28) (AVSEHQLLHDKGKSIQDLRRRFFLWHLI-NH2) [W25-PTHrP(1-28)NH],270 % parent
